The results in this text go back to US7220775B2, “Compound useful for the treatment of neuropathic pain” (H. Lundbeck A/S, priority 2002, dated 2007).

The target in test [1] is NE transporter (rNE Uptk) (Rattus norvegicus, UniProt Q9WTR4). In words: Binding at native NE transporter. The following applies: Table 7, native transporter. Here is the method: (§1) The binding properties of the compounds of the present invention were evaluated at one or more cloned receptors or native, tissue-derived transporters, using protocols described below.
(§2) The methods to determine binding affinity at native transporters are described in the following publications: 5HT transporter and NE transporter (Owens et al., 1997), and DA transporter (Javitch et al, 1984).

The subject of test [2] is NE transporter (rNE Uptk). In words: Binding at native NE transporter. Set-up: species or system rat. The following applies: Table 8. As to the method:
as §1, §2

Usually Ki stands for the dissociation constant of the complex between target and ligand, obtained from inhibition or displacement. Low readings indicate tighter binding, high ones weaker binding. For `O=C1C(=Nc2ccc(C(F)(F)F)cc2)c2ccccc2N1c1ccccc1` [Example 95, 1-PHENYL-3-[[4-(TRIFLUOROMETHYL)PHENYL]IMINO]-1,3-DIHYDRO-2H-INDOL-2-ONE], the affinity in test [1], expressed as Ki, was 6.1 µM. Further, in test [2], the “selectivity ratio rNE Uptk (Ki rNE Uptk / Ki hGAL3)” value is given as over 100. In test [1], `O=C1C(=Nc2ccc(Br)cc2)c2ccccc2N1c1ccccc1` [Example 98, 3-[(4-BROMOPHENYL)IMINO]-1-PHENYL-1,3-DIHYDRO-2H-INDOL-2-ONE] returned a Ki of 5.5 µM. The “selectivity ratio rNE Uptk (Ki rNE Uptk / Ki hGAL3)” value in test [2] was over 100. For `Cc1ccc(Nc2cc(N3CCCCC3)nc(N(C)CCc3ccccc3)n2)cc1` [Example 22], in that order: 13.1 µM and over 100.

As to `Cc1ccc(Nc2cc(N3CCCCC3)nc(N3CCN(c4ncccc4C(F)(F)F)CC3)n2)cc1` [Example 34], the Ki in test [1] was over 50 µM. In addition, the “selectivity ratio rNE Uptk (Ki rNE Uptk / Ki hGAL3)” value in test [2] was over 100.

Molecule `CN(C)c1cc(Nc2ccc(Cl)c(Cl)c2)nc(Nc2ccccc2)n1` [Example 60] registered a Ki in test [1] of 46.1 µM. Consider `COc1cccc(Nc2cc(N3CCCCC3)nc(N(C)CCc3c[nH]c4ccccc34)n2)c1` [Example 17], for which, in test [1], the affinity corresponds to a Ki of 18.3 µM. Besides, the “selectivity ratio rNE Uptk (Ki rNE Uptk / Ki hGAL3)” value in test [2] is on record as over 100.

In test [1], `O=C1C(=Nc2ccc(Cl)cc2)c2ccccc2N1c1ccccc1` [Example 97, 3-[(4-CHLOROPHENYL)IMINO]-1-PHENYL-1,3-DIHYDRO-2H-INDOL-2-ONE] showed a Ki of 4.41 µM. Moreover, in test [2], the “selectivity ratio rNE Uptk (Ki rNE Uptk / Ki hGAL3)” value is over 30. For `Cc1ccc(Nc2cc(N(C)C)nc(N(C)CCc3c[nH]c4ccccc34)n2)cc1` [Example 77], in that order: 28.1 µM and over 100. The molecule `O=C1C(=Nc2cccc(Cl)c2)c2ccccc2N1c1ccccc1` [Example 94, 3-[(3-CHLOROPHENYL)IMINO]-1-PHENYL-1,3-DIHYDRO-2H-INDOL-2-ONE] had a Ki in test [1] of 4.88 µM. Further, the “selectivity ratio rNE Uptk (Ki rNE Uptk / Ki hGAL3)” value in test [2] is over 30. `CN(CCc1c[nH]c2ccccc12)c1nc(Nc2ccc(F)c(F)c2)cc(N2CCCCC2)n1` [Example 15] came in with a Ki in test [1] of over 50 µM. Besides, the “selectivity ratio rNE Uptk (Ki rNE Uptk / Ki hGAL3)” value in test [2] is listed as over 100. For `Cc1ccc(Nc2cc(N3CCCCC3)nc(N(C)CCc3c[nH]c4ccccc34)n2)cc1` [Example 11], in that order: over 50 µM and over 100.
